Data as given in PubChem BioAssay AID1996.
Converted amounts (≈) assume the structure as drawn.

Conditions: buffer; pH 7.4; 200.0 µM

Q: For `CC(=O)N1CCN(c2nc3ccc([N+](=O)[O-])cc3s2)CC1`, which solubility kinetic is on record?
A: 31.7 µg/mL (≈ 103 µM)

Q: For `O=C(OCC(=O)c1ccc[nH]1)c1cncc(Br)c1`, which solubility kinetic is on record?
A: 24.2 µg/mL (≈ 78.3 µM)

Q: Which solubility kinetic does the source give for `Cc1ccc(OCCC(=O)OCC(=O)NC2CCCC2)cc1` here?
A: > 45.8 µg/mL

Q: For `O=C(CSc1cccc2cccnc12)Nc1cc(C(=O)O)cc(C(=O)O)c1`, which solubility kinetic is on record?
A: 52 µg/mL (≈ 136 µM)

Q: Which solubility kinetic does the source give for `Cc1ccc(NC(=O)C2CCN(C(=O)c3cccs3)CC2)cc1` here?
A: > 49.3 µg/mL

Q: Which solubility kinetic does the source give for `COc1ccc(C(=O)N(Cc2ccccc2)c2cccc(C)c2)cc1` here?
A: 15.8 µg/mL (≈ 47.7 µM)

Q: For `Cn1c(/C=C/c2ccccc2)nc2ccccc21`, which solubility kinetic is on record?
A: 21.9 µg/mL (≈ 93.5 µM)

Q: For `Cc1cccnc1NC(=O)C1COc2ccccc2O1` (stereo unspecified), which solubility kinetic is on record?
A: 40.1 µg/mL (≈ 148 µM)

Q: For `O=S(=O)(c1ccc(Cl)s1)N1CCCCC1`, which solubility kinetic is on record?
A: 22 µg/mL (≈ 82.8 µM)

Q: For `CN(c1ccccc1)c1nc(N)c([N+](=O)[O-])c(Nc2ccccc2F)n1`, which solubility kinetic is on record?
A: < 0.1 µg/mL

Q: For `Cc1cc(/C(N)=N/OC(=O)c2ccc(Cl)cc2)no1`, which solubility kinetic is on record?
A: 1.6 µg/mL (≈ 5.72 µM)

Q: Which solubility kinetic does the source give for `Cc1cccc(C(=O)NCCc2ccccc2)c1` here?
A: > 35.9 µg/mL

Q: With `CCN(C(=O)COC(=O)c1ccc([N+](=O)[O-])o1)c1cccc2ccccc12` as the molecule, how does the solubility kinetic read?
A: 33.7 µg/mL (≈ 91.5 µM)

Q: With `C#CCOc1ccc(/C=C2/C(=O)ON=C2C)cc1Cl` as the molecule, how does the solubility kinetic read?
A: 32.9 µg/mL (≈ 119 µM)

Q: Which solubility kinetic does the source give for `Cc1cc(NS(=O)(=O)c2ccc3c(c2)OCCO3)no1` here?
A: 31.2 µg/mL (≈ 105 µM)

Q: For `O=C(CN1CCN(c2ccccc2)CC1)Nc1ccncc1`, which solubility kinetic is on record?
A: 38.6 µg/mL (≈ 130 µM)

Q: For `O=C(O)CCc1ccc(-c2cccs2)n1CCc1ccccc1`, which solubility kinetic is on record?
A: > 48.8 µg/mL

Q: Which solubility kinetic does the source give for `CCOc1ncccc1C(=O)OCC(=O)NCCCc1ccccc1` here?
A: > 51.4 µg/mL

Q: Which solubility kinetic does the source give for `O=C1N(Cc2ccccc2)c2ccccc2C12OCCO2` here?
A: 28.9 µg/mL (≈ 103 µM)

Q: With `O=C(O)c1ccc(/C=N/n2cc(-c3ccccc3)[nH]c2=S)cc1` as the molecule, how does the solubility kinetic read?
A: > 48.5 µg/mL

Q: Which solubility kinetic does the source give for `O=C1CCN2C=Nc3cccc4ccc1c2c34` here?
A: 33.2 µg/mL (≈ 149 µM)

Q: For `Cc1ccc(C)c(NC(=O)C2COc3ccccc3O2)c1` (stereo unspecified), which solubility kinetic is on record?
A: 3.5 µg/mL (≈ 12.4 µM)

Q: For `CCOC(=O)N1CCN(CC(=O)Nc2ccc(F)cc2)CC1`, which solubility kinetic is on record?
A: > 46.4 µg/mL

Q: For `O=C(Nc1cc(Cl)ccc1N1CCOCC1)c1ccncc1`, which solubility kinetic is on record?
A: > 47.7 µg/mL

Q: With `COc1cc(-c2nnc(SCc3cc(=O)oc4cc(O)c(O)cc34)o2)cc(OC)c1OC` as the molecule, how does the solubility kinetic read?
A: > 68.8 µg/mL

Q: For `COn1c(=O)c(-c2ccc(F)cc2)[n+]([O-])c2ccccc21`, which solubility kinetic is on record?
A: > 42.9 µg/mL

Q: For `CCCCc1ccc(NC(=S)N2CCCC2)cc1`, which solubility kinetic is on record?
A: 9.2 µg/mL (≈ 35.1 µM)

Q: Which solubility kinetic does the source give for `COc1cc2[nH]c(C(=O)NCC3CCCO3)cc2c(OC)c1OC` (stereo unspecified) here?
A: > 50.2 µg/mL

Q: With `Cc1ccc(Oc2ncnc(N)c2[N+](=O)[O-])cc1C` as the molecule, how does the solubility kinetic read?
A: 4.8 µg/mL (≈ 18.4 µM)

Q: With `Cc1cc(=O)oc2c(C)c(OCC(=O)NCC3CCC(C(=O)O)CC3)ccc12` (stereo unspecified) as the molecule, how does the solubility kinetic read?
A: > 58.1 µg/mL

Q: For `CC(C)C(NC(=O)c1ccc([N+](=O)[O-])cc1Cl)C(=O)N1CCCC1` (stereo unspecified), which solubility kinetic is on record?
A: > 53.1 µg/mL

Q: Which solubility kinetic does the source give for `Cc1ccc(N2Cc3ccccc3C2=O)cc1` here?
A: 7.8 µg/mL (≈ 34.9 µM)

Q: For `COc1cc(C)c(COc2ncnc3ccccc23)cc1OC`, which solubility kinetic is on record?
A: 40.1 µg/mL (≈ 129 µM)

Q: Which solubility kinetic does the source give for `Cc1cccc(C)c1NC(=O)c1cnccn1` here?
A: 24.8 µg/mL (≈ 109 µM)

Q: For `CCc1ccc(NC(=O)c2cc(Br)ccc2Br)cc1`, which solubility kinetic is on record?
A: < 0.8 µg/mL

Q: Which solubility kinetic does the source give for `Cc1cc(C)c(C)c(S(=O)(=O)N2CCC(C(=O)OCC(=O)NC3CCS(=O)(=O)C3)CC2)c1C` (stereo unspecified) here?
A: > 75.1 µg/mL

Q: For `CN(CC(=O)NC(=O)NC1CCCCC1)Cc1ccccc1`, which solubility kinetic is on record?
A: > 45.5 µg/mL

Q: With `CCN(CC(=O)Nc1c(F)cccc1F)C(=O)c1ccc(C#N)cc1` as the molecule, how does the solubility kinetic read?
A: > 51.5 µg/mL

Q: Which solubility kinetic does the source give for `COc1ccccc1-c1cc(-c2ccc(O)cc2)nc(N)c1C#N` here?
A: 3.7 µg/mL (≈ 11.7 µM)

Q: Which solubility kinetic does the source give for `CC(C)(C)C(=O)NC(=O)Nc1ccccc1C(F)(F)F` here?
A: 3.3 µg/mL (≈ 11.4 µM)

Q: For `O=C(COC(=O)c1ccc(F)c([N+](=O)[O-])c1)NC(=O)NCc1ccccc1`, which solubility kinetic is on record?
A: 21.3 µg/mL (≈ 56.8 µM)

Q: Which solubility kinetic does the source give for `CCN1CCN(C(=O)c2cc3cc(F)ccc3[nH]2)CC1` here?
A: 36.4 µg/mL (≈ 132 µM)

Q: For `COc1cccc(CC2(CO)CCN(Cc3cn(C)nc3C)CC2)c1`, which solubility kinetic is on record?
A: > 51.5 µg/mL

Q: For `O=C(NC1CC2CCC1C2)c1ccco1` (stereo unspecified), which solubility kinetic is on record?
A: 26.3 µg/mL (≈ 128 µM)

Q: Which solubility kinetic does the source give for `CC1CCCCN1C(=O)CCn1c(=S)oc2ccccc21` (stereo unspecified) here?
A: 43.9 µg/mL (≈ 144 µM)

Q: With `CN(C)C(=O)c1cc(C(=O)c2ccc(F)cc2F)c[nH]1` as the molecule, how does the solubility kinetic read?
A: > 41.7 µg/mL

Q: Which solubility kinetic does the source give for `O=C(CCCc1nc2ccccc2s1)Nc1ccccc1` here?
A: 9.9 µg/mL (≈ 33.4 µM)

Q: With `CCN(C(=S)NCc1ccccc1)c1cccc2ccccc12` as the molecule, how does the solubility kinetic read?
A: 2.7 µg/mL (≈ 8.43 µM)

Q: With `CCc1cc2c(=O)oc(-c3ccc(Br)cc3)nc2s1` as the molecule, how does the solubility kinetic read?
A: < 0.7 µg/mL

Q: For `S=C(Nc1ccc(Cl)c(Cl)c1)N1CCN(c2ccccn2)CC1`, which solubility kinetic is on record?
A: 0.9 µg/mL (≈ 2.45 µM)

Q: Which solubility kinetic does the source give for `Cc1nc(N2CCN(C)CC2)c2c3c(sc2n1)CCCC3` here?
A: 41.4 µg/mL (≈ 137 µM)

Q: For `O=C(CNC(=O)c1ccccc1)NCc1ccc(Cl)cc1`, which solubility kinetic is on record?
A: 10.6 µg/mL (≈ 35 µM)

Q: For `CC(=O)O[C@H](CC(=O)O)C[N+](C)(C)C.[Cl-]`, which solubility kinetic is on record?
A: > 36 µg/mL

Q: Which solubility kinetic does the source give for `NC(=O)CSc1ccc(S(=O)(=O)N2CCOCC2)cn1` here?
A: > 47.6 µg/mL

Q: Which solubility kinetic does the source give for `CC1CCCCN1C(=O)COC(=O)Cc1c[nH]c2ccccc12` (stereo unspecified) here?
A: > 47.2 µg/mL

Q: With `COP(=O)(OC)C(NC(=O)Nc1ccccc1)c1ccccc1` (stereo unspecified) as the molecule, how does the solubility kinetic read?
A: 43.9 µg/mL (≈ 131 µM)

Q: For `O=Cc1c(NC2CCCCC2)c2ccccc2[nH]c1=O`, which solubility kinetic is on record?
A: 35.2 µg/mL (≈ 130 µM)

Q: With `Cn1c(SCC(=O)NC2CC2)nnc1-c1ccccn1` as the molecule, how does the solubility kinetic read?
A: > 43.4 µg/mL

Q: Which solubility kinetic does the source give for `Cc1ccc(CN(C)CC(=O)NC(C)c2ccccc2)cc1` (stereo unspecified) here?
A: > 44.5 µg/mL

Q: With `COc1ccc(C2NC(=S)NC3=C2N2CCC3CC2)cc1` (stereo unspecified) as the molecule, how does the solubility kinetic read?
A: > 45.2 µg/mL

Q: Which solubility kinetic does the source give for `CC1CCN(C(=O)c2ccc3ccccc3c2)CC1` here?
A: 23.8 µg/mL (≈ 93.9 µM)

Q: For `COc1ccc(-c2nc(-c3cccs3)no2)cc1`, which solubility kinetic is on record?
A: < 0.3 µg/mL

Q: For `CN(C)/C=C/C(=O)c1ccc(F)cc1F`, which solubility kinetic is on record?
A: > 31.7 µg/mL

Q: With `COc1ccc(NC(=O)CSCC(=O)N=c2sccn2C)cc1` as the molecule, how does the solubility kinetic read?
A: 49.9 µg/mL (≈ 142 µM)

Q: With `Fc1ccccc1-c1nc(NC2CCCC2)c2ccccc2n1` as the molecule, how does the solubility kinetic read?
A: 11.1 µg/mL (≈ 36.1 µM)

Q: With `Cc1ccc(CNC(=O)C2CCCN2C(=O)Nc2ccc(C)cc2)cc1` (stereo unspecified) as the molecule, how does the solubility kinetic read?
A: 11.4 µg/mL (≈ 32.4 µM)

Q: With `CC[C@H](CO)NCCN[C@H](CC)CO.Cl` as the molecule, how does the solubility kinetic read?
A: > 41.6 µg/mL

Q: For `COc1cc([N+](=O)[O-])ccc1NC(=S)N1CCN(c2ccccn2)CC1`, which solubility kinetic is on record?
A: 12.2 µg/mL (≈ 32.7 µM)

Q: Which solubility kinetic does the source give for `CCOc1ncccc1C(=O)NCC(c1ccccc1)N(C)C` (stereo unspecified) here?
A: > 47 µg/mL

Q: For `O=C(c1ccccc1)C(Nc1ccccn1)c1ccccc1` (stereo unspecified), which solubility kinetic is on record?
A: 27.8 µg/mL (≈ 96.4 µM)

Q: For `CNS(=O)(=O)c1ccc(NC(=O)Nc2ccc3c(c2)OCO3)cc1`, which solubility kinetic is on record?
A: 15.6 µg/mL (≈ 44.7 µM)

Q: Which solubility kinetic does the source give for `COc1ccc(S(=O)(=O)/C(C#N)=C/Nc2ccccc2F)cc1` here?
A: 3.3 µg/mL (≈ 9.93 µM)

Q: For `CCOc1ccc(N2C(=O)C(Cl)=C(N3CCOCC3)C2=O)cc1`, which solubility kinetic is on record?
A: > 50.5 µg/mL

Q: With `Nc1nccnc1C(=O)OCC(=O)c1ccc[nH]1` as the molecule, how does the solubility kinetic read?
A: > 36.9 µg/mL

Q: For `OC(CN1CCCCC1)c1c[nH]c2ccccc12` (stereo unspecified), which solubility kinetic is on record?
A: > 36.7 µg/mL

Q: For `Cc1nn(C)cc1S(=O)(=O)NCc1ccc2c(c1)OCO2`, which solubility kinetic is on record?
A: > 46.4 µg/mL

Q: Which solubility kinetic does the source give for `Cc1ccc(NC(=O)COC(=O)C2CCC(=O)N2)c([N+](=O)[O-])c1` (stereo unspecified) here?
A: > 48.2 µg/mL

Q: Which solubility kinetic does the source give for `COc1ccc(OCCCn2ccnc2)cc1.Cl` here?
A: 36 µg/mL

Q: Which solubility kinetic does the source give for `CC(=O)OC(C(=O)NC1CCCCC1)c1ccccc1F` (stereo unspecified) here?
A: > 44 µg/mL

Q: Which solubility kinetic does the source give for `FCCCOc1ccc(-c2nccc(-c3ccccn3)n2)cc1` here?
A: 2.8 µg/mL (≈ 9.05 µM)

Q: With `COc1ccc(N2CC(NC(=O)N3CCc4ccccc43)CC2=O)cc1OC` (stereo unspecified) as the molecule, how does the solubility kinetic read?
A: > 57.2 µg/mL

Q: Which solubility kinetic does the source give for `COc1cc(C(=O)N2CCC(C(N)=O)CC2)ccc1OCc1c(C)noc1C` here?
A: > 58.1 µg/mL

Q: For `CN(CC(=O)NC1CCCCCC1)S(=O)(=O)c1cnc[nH]1`, which solubility kinetic is on record?
A: > 47.2 µg/mL

Q: For `CC(=O)Nc1ccc(Oc2ccc(NC(C)=O)c(NC(C)=O)c2)cc1`, which solubility kinetic is on record?
A: > 51.2 µg/mL

Q: With `Cc1cccc(C(=O)NCCCNC(=O)c2ccccn2)c1` as the molecule, how does the solubility kinetic read?
A: > 44.6 µg/mL

Q: Which solubility kinetic does the source give for `COc1ccccc1CNCc1ccc(OC)c2ccccc12` here?
A: 33.7 µg/mL (≈ 110 µM)
